One test relates to AU565 (Her2 amp). Description: Growth inhibition GI50 in vitro (CCK8/MTT, 72 h). In kind it is cell-based, human. Conditions: Homo sapiens, AU565; HER2 positive cell line; range of GI50; read-out: GI50 AU-565.
The next test relates to N87 (HER2 Amp). Description: Growth inhibition GI50 in vitro (CCK8/MTT, 72 h). The format is cell-based, human. Conditions: Homo sapiens.
Test [1] concerns H1299 (EGFR wt, Nras Q61K). Put plainly: Growth inhibition GI50 in vitro (CCK8/MTT, 72 h). The format is cell-based, human. Conditions: Homo sapiens, NCI-H1299; EGFR wild type cell line; range of GI50; read-out: GI50 H1299.
Test [2] concerns H460 (EGFR wt, Kras G61H). Put plainly: Growth inhibition GI50 in vitro (CCK8/MTT, 72 h). The format is cell-based, human. Particulars: Homo sapiens, NCI-H460; EGFR wild type cell line; range of GI50; read-out: GI50 H460.
In a further test the test system is A549 (EGFR WT). Put plainly: Growth inhibition GI50 in vitro (CCK8/MTT, 72 h). Particulars: Homo sapiens, A549; EGFR wild type cell line; range of GI50; read-out: GI50 A549. In kind it is cell-based, human.
The subject of test [3] is A431 (EGFR WT, amplification and high expression). Description: Growth inhibition GI50 in vitro (CCK8/MTT, 72 h). In kind it is cell-based, human. Particulars: Homo sapiens, A-431; EGFR wild type cell line; range of GI50; read-out: GI50 A431.
Another test deals with SK-BR-3 (Her2 amp). Description: Growth inhibition GI50 in vitro (CCK8/MTT, 72 h). In kind it is cell-based, human. Conditions: Homo sapiens, SK-BR-3; HER2 positive cell line; range of GI50; read-out: GI50 SK-BR-3.
Another test relates to PC-9 tumor cells. Put plainly: In vivo tumor growth inhibition, xenograft. Conditions: Mus musculus, po, 456 h; 25 mg/kg intragastric once daily, day 19; read-out: TGI (%) PC-9. Set-up: species or system Bab/c nude mice. From the text:
(§1) Tumor xenograft models of immunodeficient mice are an effective tool to test the antitumor activity of the compound in vivo. Generally, the effectiveness of human tumor cell xenograft is positively correlated with the clinical treatment of human tumor. Bab/c immunodeficient mouse is one of the most commonly used xenograft animals with human tumor cells. In order to test whether the present compounds can inhibit the in vivo growth of the tumor cells expressing EGFR mutantion or HER2/ErbB2 overexpression, H1975, PC-9 and NCI-N87 cell lines were used in the experiments. When H1975, PC-9 and NCI-N87 cells were in growth logarithmic phase, they were digested with pancreatin. An appropriate amount of 1×RPMI1640 culture medium (serum-free) was added to stop digestion. The cells were collected to a 50 ml centrifuge tube (Corning), and centrifuged at 1700 rm for 3 min. The supernatant was discard, then the cells were suspended with 1×RPMI1640 culture medium and count the number. […] cells/mL was prepared and then placed on ice. 5˜10×10^6 (0.2 ml) cells were inoculated subcutaneously on the right side of the back of 6˜8 week old female Bab/c nude mice (about 20 g in weight). When the tumor average volume growed to 100˜200 mm^3, the mice were randomly divide into groups (3-6 mice per group), and marked by ear pierced tags and weighted. The test compounds and the reference compound (with a purity over 99% and individual impurity not higher than 0.2%) were formulated to emulsion suspension with CM (30% polyethylene glycol 400, 0.5% Tween-80 and 2.5% propylene glycol) respectively. Intragastric administration was continued once daily at a dosage of 25 mg/kg (0.1 ml/10 g mouse). The tumor was measured 3 times per week. When the average volume of the tumor in CM control group was up to 1500 mm^3 or after administration for 30 days, the experiment was ended.
(§2) The volume of tumor (V) was calculated as V=½*a*b^2 (a represents length of tumors, b represents width of tumors). Tumor growth inhibition (TGI) was calculated as: TGI (%)=100−(VT−VT0)/(VC−VC0)*100%; where VT0 and VT are the tumor volumes of the beginning and finish days of dosed groups; and VC0 and VC are the tumor volumes of the beginning and finish days for the control group, respectively.

The subject of another test is H1975 tumor cells. Description: In vivo tumor growth inhibition, xenograft. Set-up: species or system Bab/c nude mice. Conditions: Mus musculus, NCI-H1975, po, 456 h; 25 mg/kg intragastric once daily, day 19; read-out: TGI (%) H1975.
Excerpt: as §1, §2

A further test has as its system PC-9 (EGFR dE746-A750). Description: Growth inhibition GI50 in vitro (CCK8/MTT, 72 h). In kind it is cell-based, human. Conditions: Homo sapiens; EGFR mutant cell line; range of GI50; read-out: GI50 PC-9.
In test [4] the test system is PC-9ER (EGFR delE746-A750/T790M). Put plainly: Growth inhibition GI50 in vitro (CCK8/MTT, 72 h). The format is cell-based, human. Particulars: Homo sapiens, PC-9/ER; EGFR mutant cell line; range of GI50; read-out: GI50 PC9ER.
In a further test the test system is HCC827 (EGFR dE746-A750). Put plainly: Growth inhibition GI50 in vitro (CCK8/MTT, 72 h). In kind it is cell-based, human. Particulars: Homo sapiens, HCC827; EGFR mutant cell line; range of GI50; read-out: GI50 HCC827.
The next test deals with H1975 (EGFR L858R/T790M). Description: Growth inhibition GI50 in vitro (CCK8/MTT, 72 h). The format is cell-based, human. Conditions: Homo sapiens, NCI-H1975; EGFR mutant cell line; range of GI50; read-out: GI50 H1975.
The next test relates to Calu-3 (Her2 amp). Put plainly: Growth inhibition GI50 in vitro (CCK8/MTT, 72 h). In kind it is cell-based. Particulars: Homo sapiens, Calu-3; Table 16; 1000 nM to 0.03 nM serial dilution; read-out: GI50 Calu3 (HER2 amp). How it is done: (§3) Human lung adenocarcinoma cell line Calu-3 (ATCC) was cultured with 1×MEM complete medium (10% FBS, 1% double-antibiotics, 1% NEAA (Gibco), 2 mM glutamine and 1 mM of sodium pyruvate). Human breast cancer cell line SK-BR-3 was cultured with McCOY'S5A complete medium (10% FBS). Human colon cancer cell line SNU1040 (HER2 V777M positive) (ATCC) and human bronchoalveolar adenocarcinoma cell line NCI-H1781 (expressing HER2 exon 20 G776VC mutation) (ATCC) were cultured with 1×RPMI1640 complete medium (10% FBS), respectively.
(§4) The suspension cells were collected by centrifugation. The supernatant was discard and the cell pellet was resuspended and counted. Different cell concentrations (5˜10×10^4 cells/mL) were prepared according to the growth cycle of each cell line and then seeded on a 96-well plate (Corning), 100 μL/well. The cells were incubated over night at 37° C., 5% CO2. The compounds were added to the cells on the second day with 2 wells in parallel. The final concentration of organic solvent shall not exceed 1%. The cells were continually incubated for 72 h, and then subjected to MTT assay.
(§5) The present compounds and the reference compounds were dissolved with DMSO (Sigma), respectively. […] The storage concentration of compounds was 10 mM and kept at −20° C. They were diluted by 2 times or 10 times with serial dilution before using.
(§6) Dojindo CCK8 reagent kit was used as MTT assay. […] FC meter was used as microplate reader.
Adherent cell culture medium was discard and immediately replaced with fresh prepared medium which contains 10% CCK8 reagent (100 μL/well). For the suspension cells, CCK8 was directly added to 10% of the final concentration. The cells were continually incubated for 1˜4 h. When the color of control wells turned to dark yellow, the absorption value was measured at OD450 nm. The cell growth rate was calculated according to the following formula: cell growth rate (%)=100*(T−T0)/(C−T0), T=optical density of drug treatment cell well—optical density of blank control well; T0=optical density of cell well before drug treatment—optical density of blank control well; C=optical density of cell well of solvent control group—optical density of blank control well. […] The experiment was independently repeated 1˜3 times, and subject to biological statistical analysis.

Test [5] has as its system NCI-H1781 (HER2 exon 20 G776VC mutation). Put plainly: Growth inhibition GI50 in vitro (CCK8/MTT, 72 h). In kind it is cell-based. Particulars: Homo sapiens, NCI-H1781; Table 16; 1000 nM to 0.03 nM serial dilution; read-out: GI50 H1781 (HER2 G776VC). How it is done:
as §3
as §4, with “Adherent cells were digested with 0.25% pancreatin-EDTA (Gibco). The suspension” for “The suspension”
as §5, §6
(§7) Adherent cell culture medium was discard and immediately replaced with fresh prepared medium which contains 10% CCK8 reagent (100 μL/well). For the suspension cells, CCK8 was directly added to 10% of the final concentration. The cells were continually incubated for 1˜4 h. When the color of control wells turned to dark yellow, the absorption value was measured at OD450 nm. The cell growth rate was calculated according to the following formula: cell growth rate (%)=100*(T−T0)/(C−T0), T=optical density of drug treatment cell well—optical density of blank control well; T0=optical density of cell well before drug treatment—optical density of blank control well; C=optical density of cell well of solvent control group—optical density of blank control well. The concentration value of 50% inhibition of cell growth (GI50) was calculated. The experiment was independently repeated 1˜3 times, and subject to biological statistical analysis.
(§8) Furthermore, the present compounds (99, 136, 205, 211, 212, 213, 216, 229, 230, 231, 232, 233 and 236) were selected to carry out growth inhibition test for HER2/ERBB2 gene amplified or high expressed or mutant tumor cells. Afatinib and AZD9291 were used for references as second- and third-generation inhibitors of EGFR.
(§9) Each compound started at 1000 nM as an initial concentration and was diluted by 2 times with serial dilution to 0.03 nM. The GI50 value of each compound was calculated according to Test Example 1.3.

The test system of test [6] is SNU1040 (HER2 V777M positive). Put plainly: Growth inhibition GI50 in vitro (CCK8/MTT, 72 h). In kind it is cell-based. Particulars: Homo sapiens; Table 16; 1000 nM to 0.03 nM serial dilution; read-out: GI50 SNU-1040 (HER2 V777M). The procedure: as §3
as §4, with “Adherent cells were digested with 0.25% pancreatin-EDTA (Gibco). The suspension” for “The suspension”
as §5, §6, §7, §8, §9

Test [7] has as its system HER2/ErbB2 amplified cell line N87. Put plainly: In vivo tumor growth inhibition, xenograft. Set-up: species or system Bab/c nude mice. Particulars: Mus musculus, po, 456 h, 25 mg/kg intragastric once daily, day 19, read-out: TGI (%).
Excerpt: as §1, §2

Broadly, the GI50 is the concentration that inhibits growth by half.

Where two headings read alike, the source gives them in different places.

`C=CC(=O)Nc1cc(Nc2cc(-c3cn(C)c4ccccc34)ncn2)c(OC)cc1N1CCC(N2CCN(C)CC2)CC1` [Compound 176, N-(4-methoxyl-5-(6-(1-methyl-1H-indol-3-yl)-pyrimidin-4-ylamino)-2-(4-(4-methylpiperazin-1-yl)-piperidin-1-yl)-phenyl)-acrylamide]: the GI50 with AU565 (Her2 amp) is 100 to 1000 nM; in the test on N87 (HER2 Amp) (HER2 positive cell line, range of GI50, read-out: GI50 N87), 10 to 100 nM; in test [1] it was more than 1000 nM; in test [2], more than 1000 nM; in the test with A549 (EGFR WT), more than 1000 nM; in test [3], 100 to 1000 nM. Besides, the GI50 is 10 to 100 nM with SK-BR-3 (Her2 amp); less than 10 nM in the test with PC-9 (EGFR dE746-A750); 10 to 100 nM in test [4]; less than 10 nM with HCC827 (EGFR dE746-A750); 10 to 100 nM with H1975 (EGFR L858R/T790M). Besides, the inhibition in vivo at 25 mg/kg was found to be 98.6% in the test on PC-9 tumor cells and 98.2% in the test with H1975 tumor cells.

As for `CN(C)C/C=C/C(=O)Nc1cc2c(Nc3ccc(F)c(Cl)c3)ncnc2cc1O[C@H]1CCOC1` [Afatinib, reference compound], the GI50 in the test with Calu-3 (Her2 amp) is 2.62 nM; in the test on N87 (HER2 Amp) (Table 16, 1000 nM to 0.03 nM serial dilution, read-out: GI50 N87 (HER2 amp)) it was 1.25 nM; in test [5] it was 1.17 nM; in test [6], 79.1 nM. Further, the inhibition in vivo at 25 mg/kg in [7] worked out at 98.3%.
